In ChEMBL document CHEMBL4257084, “Novel functionalized 5-(phenoxymethyl)-1,3-dioxane analogs exhibiting cytochrome p450 inhibition and their method of use” (2016):

Molecular target: T1, Cytochrome P450 11B1, mitochondrial (Homo sapiens, UniProt P15538)
T1 sequence (P15538 whole entry): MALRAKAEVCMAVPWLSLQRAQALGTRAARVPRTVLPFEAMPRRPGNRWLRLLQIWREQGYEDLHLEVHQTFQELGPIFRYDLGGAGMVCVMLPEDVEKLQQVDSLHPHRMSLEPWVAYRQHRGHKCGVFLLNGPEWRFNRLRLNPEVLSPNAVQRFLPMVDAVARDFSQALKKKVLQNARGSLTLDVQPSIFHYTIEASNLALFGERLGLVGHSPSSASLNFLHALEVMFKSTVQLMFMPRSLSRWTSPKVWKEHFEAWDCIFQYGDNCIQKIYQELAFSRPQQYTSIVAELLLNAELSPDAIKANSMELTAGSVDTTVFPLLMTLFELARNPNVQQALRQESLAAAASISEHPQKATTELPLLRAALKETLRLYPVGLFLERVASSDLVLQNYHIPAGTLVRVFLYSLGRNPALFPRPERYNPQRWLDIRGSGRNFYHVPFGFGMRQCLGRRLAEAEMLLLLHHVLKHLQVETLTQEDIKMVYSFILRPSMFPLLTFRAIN
Test: Inhibition of recombinant CYP11 (unknown origin) expressed in human AD293 cells assessed as reduction in cortisol level preincubated for 60 mins followed by 11-deoxy cortisol substrate addition and measured after 12 hrs by LC-MS method
Format: cell-based

IC50: 10 µM
Structure (SMILES): CS(=O)(=O)N1CCN(c2ccc(CO[C@H]3CO[C@@](Cn4ccnc4)(c4ccccc4Cl)OC3)cc2)CC1
